In patent US8816095B2, “Na channels, disease, and related assays and compositions” (Georgetown University, priority 2008, dated 2014):

Experiments:
[1] = tested on: Na+ channel site 2 binding site; assay: [3H]-BTX assay, rat forebrain membranes; details: ± S.E.M., n in brackets
Description: In order to determine if the hermitamides bind to the sodium channel, the natural products, their enantiomers, and the racemic mixture were tested for their ability to displace [^3H]-batrachatoxin. Batrachatoxin is a lipid-soluble neurotoxin that binds to site 2 of the sodium channel. This site is known to overlap with the local anesthetic binding […]. Ligands known to bind to […] of the sodium channel include anesthetics, anticonvulsants and antiarrthymics. As a control, phenyloin, a clinically-used sodium channel blocker that is known to displace [^3H]BTX was also included.
The assays were run at 10 μM and recorded as percent displacement of BTX.
Briefly, rat forebrain membranes (10 mg tissue/well) were incubated with [^3H]-BTX (30-60 Ci/mmol). […] The reaction was terminated by rapid vacuum filtration of the reaction contents onto glass fiber filters. Radioactivity trapped onto the filters was determined and compared with control values to ascertain any interactions of the test compound with the Na^+ channel site 2 binding site. Aconitine (1 μM) was used as a positive control (Sigma Aldrich, Inc., St. Louis, Mo.).

human Nav1.2 = biological target: T1, human Nav1.2 (Homo sapiens, UniProt Q99250); assay: Sodium channel electrophysiology of hermitamides (patch clamp); assay type: cell-based; details: HEK human Nav1.2
T1 construct: host or cells: HEK
Description: To test whether these compounds were functionally active as sodium channel blockers, the effects of the hermitamides were tested on human embryonic kidney cells (HEK) cells stably expressing human Nav1.2 using the […].
Human embryonic kidney cells (HEK) cells stably expressing human Nav1.2 were a kind gift from Dr. H. A. Hartmann (University of Baltimore, Md., USA) and were grown in DMEM/F12 media (Invitrogen, Corp, CA, USA) supplemented with 10% fetal bovine serum, penicillin (100 U/ml), streptomycin (100 μg/ml) and G418 (500 μg/ml; Sigma, Mo., USA). Cells were grown in a humidified atmosphere of 5% CO2 and 95% air at 37° C.
Sodium currents were recorded using the whole-cell configuration of the patch clamp recording technique with an Axopatch 200 amplifier (Axon Instruments, Foster City, Calif.). All voltage protocols were applied using pCLAMP 9 software (Axon, USA) and a Digidata 1322A (Axon, USA). Currents were amplified and low pass filtered (2 kHz) and sampled at 33 kHz. Borosilicate glass pipettes were pulled using a Brown-Flaming puller (model P87, Sutter Instruments Co, Novato, Calif.) and heat polished to produce electrode resistances of […] when filled with the following electrode solution (in mM); CsCl 130, MgCl2 1, MgATP 5, BAPTA 10, HEPES 5 (pH adjusted to 7.4 with CsOH). Cells were plated on glass coverslips and superfused with solution containing the following composition; (in mM) NaCl 130, KCl 4, CaCl2 1, MgCl2 5, HEPES 5, and glucose 5 (pH adjusted to 7.4 with NaOH).
(S)-Hermitamide B was prepared as 100 mM stock solutions in DMSO and diluted to the desired concentration in perfusion solution. The maximum DMSO concentration used was 0.1% and had no effect on current amplitude. All experiments were performed at room temperature (20-22° C.). After establishing whole-cell, a minimum series resistance compensation of 75% was applied. Sodium currents were elicited by a depolarizing step from a holding potential of −100 mV to +10 mV for a duration of 25 ms at 15 s intervals. (S)-Hermitamide B was applied after a 3 min control period and continued until a steady state current amplitude was observed. All data represent percentage mean block±standard error of the mean (S.E.M.).

CWR22rv-1 cells = assay: CWR22rv-1 prostate cancer cell death (propidium iodide, FACS); assay type: cell-based, human; details: 25 μM, after 24 h
Description: CWR22Rv1 cells (ATCC, Manassas, Va.) were seeded in 6 well tissue culture plate at density of 300,000 cells/well and maintained in RPMI 1640 (Mediatech, Herndon, Va.) containing 10% fetal bovine serum, 2.5 mM L-glutamine, and penicillin-streptomycin (100 IU/ml and 100 μg/ml, respectively) at 37° C. with 5% CO2. Cells were then switched to serum free RPMI media overnight prior to drug treatment. Compounds were dissolved in 100% dimethylsulfoxide (DMSO) and diluted to the desired concentrations in serum free RPMI. Cells were treated with indicated drug concentrations (in triplicate per treatment point) for 24, 48, 72 hour. After treatment, cells were harvested by trypsinization and fixed in 70% ethanol. The fixed cells were then stained with propidium iodide (50 μg/ml) after treatment with RNase (5 μg/ml). The stained cells were analyzed for DNA content using FACSsort (Becton Dickinson). Cell cycle fractions were quantified with Cell Quest (Becton Dickinson) or ModFit LT (Verity Software House).

site 2 of the VGSC = assay: [3H]-BTX-B displacement assay at site 2; assay type: binding, rat; details: Screen at 40 μM, 2 replicates, referenced to Aconitine

T1 sequence (Q99250 whole entry): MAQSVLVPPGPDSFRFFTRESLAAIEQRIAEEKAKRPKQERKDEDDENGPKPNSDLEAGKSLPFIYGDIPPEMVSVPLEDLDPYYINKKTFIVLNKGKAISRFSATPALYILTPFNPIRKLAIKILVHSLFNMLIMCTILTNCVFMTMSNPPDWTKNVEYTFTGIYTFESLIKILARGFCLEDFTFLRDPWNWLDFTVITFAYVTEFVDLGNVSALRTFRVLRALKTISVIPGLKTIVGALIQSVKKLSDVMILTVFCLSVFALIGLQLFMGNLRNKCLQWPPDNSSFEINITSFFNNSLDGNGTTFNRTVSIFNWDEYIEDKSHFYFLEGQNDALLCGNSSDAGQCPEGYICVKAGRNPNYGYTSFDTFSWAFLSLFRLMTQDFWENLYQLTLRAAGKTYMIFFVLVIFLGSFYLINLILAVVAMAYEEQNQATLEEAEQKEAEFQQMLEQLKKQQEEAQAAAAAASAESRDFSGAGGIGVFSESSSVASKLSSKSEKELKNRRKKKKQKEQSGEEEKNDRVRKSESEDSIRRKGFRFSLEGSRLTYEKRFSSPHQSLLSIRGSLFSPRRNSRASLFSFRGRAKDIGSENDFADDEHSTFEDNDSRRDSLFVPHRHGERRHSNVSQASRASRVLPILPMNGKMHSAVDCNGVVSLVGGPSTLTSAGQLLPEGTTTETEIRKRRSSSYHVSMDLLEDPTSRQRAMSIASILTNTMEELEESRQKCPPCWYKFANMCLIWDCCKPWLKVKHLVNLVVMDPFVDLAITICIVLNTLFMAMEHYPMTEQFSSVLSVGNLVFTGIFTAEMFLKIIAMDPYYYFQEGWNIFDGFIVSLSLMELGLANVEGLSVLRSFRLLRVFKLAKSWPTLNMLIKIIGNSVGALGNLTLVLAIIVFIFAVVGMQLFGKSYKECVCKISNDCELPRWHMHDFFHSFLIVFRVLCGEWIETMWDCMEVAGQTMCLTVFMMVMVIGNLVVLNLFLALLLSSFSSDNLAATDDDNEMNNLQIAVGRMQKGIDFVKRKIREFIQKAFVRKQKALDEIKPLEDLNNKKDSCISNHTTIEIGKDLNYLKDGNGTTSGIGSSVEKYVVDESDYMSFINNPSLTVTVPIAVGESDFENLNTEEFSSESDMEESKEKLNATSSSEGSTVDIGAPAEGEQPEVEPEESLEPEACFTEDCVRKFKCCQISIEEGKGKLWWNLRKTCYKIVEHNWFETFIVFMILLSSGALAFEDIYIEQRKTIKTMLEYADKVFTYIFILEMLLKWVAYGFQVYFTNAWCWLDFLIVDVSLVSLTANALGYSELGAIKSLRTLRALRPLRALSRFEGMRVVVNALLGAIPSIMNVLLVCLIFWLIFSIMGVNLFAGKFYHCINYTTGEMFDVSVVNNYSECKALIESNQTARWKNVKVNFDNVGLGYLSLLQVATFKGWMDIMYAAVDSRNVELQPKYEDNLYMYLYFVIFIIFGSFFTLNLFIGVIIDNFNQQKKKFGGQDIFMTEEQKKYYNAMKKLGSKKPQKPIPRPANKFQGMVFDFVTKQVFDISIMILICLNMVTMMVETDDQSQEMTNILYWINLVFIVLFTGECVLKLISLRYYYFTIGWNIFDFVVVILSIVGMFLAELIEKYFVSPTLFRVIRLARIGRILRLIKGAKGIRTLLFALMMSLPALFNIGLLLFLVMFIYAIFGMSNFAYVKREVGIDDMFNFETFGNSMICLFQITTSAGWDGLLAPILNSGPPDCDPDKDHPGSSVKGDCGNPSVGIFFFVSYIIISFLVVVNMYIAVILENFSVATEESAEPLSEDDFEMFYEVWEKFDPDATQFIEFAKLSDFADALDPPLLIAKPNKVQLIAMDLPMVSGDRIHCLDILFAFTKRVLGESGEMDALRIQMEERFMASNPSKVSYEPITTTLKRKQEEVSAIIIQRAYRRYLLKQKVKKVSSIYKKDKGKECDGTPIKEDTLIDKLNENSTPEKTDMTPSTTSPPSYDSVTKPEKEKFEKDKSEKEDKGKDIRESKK

CCCCCCC[C@@H](C/C=C/CCC(=O)NCCc1ccccc1)OC (racemic) [rac-hermitamide A]
% [3H]-BTX Displacement At 10 μM [1]: 15.71 ± 0.14 (2) % | Patch-clamp percentage block, 1 μM (human Nav1.2): 49.7 ± 3.8 (4) % | Patch-clamp percentage block, 10 μM (human Nav1.2): 90.2 ± 2.5 (3) %

CCCCCCC[C@@H](C/C=C/CCC(=O)NCCc1c[nH]c2ccccc12)OC (racemic) [rac-hermitamide B]
% [3H]-BTX Displacement At 10 μM [1]: 36.05 ± 0.77 (2) % | Patch-clamp percentage block, 100 nM (human Nav1.2): 24.3% | Patch-clamp percentage block, 1 μM (human Nav1.2): 88.4 ± 2.9 (40% | Patch-clamp percentage block, 10 μM (human Nav1.2): 100 (1) %

CCCCCCCC(C/C=C/CCC(=O)O)OC (racemic) [rac-lyngbic acid]
% [3H]-BTX Displacement At 10 μM [1]: 7.35 ± 2.88 (2) % | Patch-clamp percentage block, 100 μM (human Nav1.2; 100 μM): 55.6%

CCCCCCC[C@](O)(C(N)=O)c1cccc(Cl)c1 [(R)-(−)-2-(3-chloro-phenyl)-2-hydroxy-nonanoic acid amide]
cell death of CWR22rv-1 cells (CWR22rv-1 cells): induces cell death

CCCCCCC[C@H](C/C=C/CCC(=O)NCCc1ccccc1)OC [(R)-hermitamide A, Phenethyl (7R,4E)-methoxytetradecenamide]
% [3H]-BTX Displacement At 10 μM [1]: 13.79 ± 1.28 (2) % | Patch-clamp percentage block, 1 μM (human Nav1.2): 58.7 ± 1.3 (4) %

CCCCCCC[C@H](C/C=C/CCC(=O)NCCc1c[nH]c2ccccc12)OC [(R)-hermitamide B, 2-(1H-indol-3-yl)-ethyl (7R,4E)-Methoxytetradecenamide]
% [3H]-BTX Displacement At 10 μM [1]: 20.31 ± 5.82 (2) % | Patch-clamp percentage block, 100 nM (human Nav1.2): 28.8% | Patch-clamp percentage block, 1 μM (human Nav1.2): 93.6 (1) %

CCCCCCC[C@H](C/C=C/CCC(=O)O)OC [(R)-lyngbic acid, (7R,4E)-Methoxytetradecenoic Acid]
% [3H]-BTX Displacement At 10 μM [1]: 11.91 ± 0.16 (2) % | Patch-clamp percentage block, 100 nM (human Nav1.2): 11.9% | Patch-clamp percentage block, 1 μM (human Nav1.2): 52.5 ± 3.9 (4) %

CCCCCCC[C@@H](C/C=C/CCC(=O)NCCc1ccccc1)OC [(S)-hermitamide A, Phenethyl (7S,4E)-methoxytetradecenamide]
% [3H]-BTX Displacement At 10 μM [1]: 15.89 ± 3.06 (2) % | Patch-clamp percentage block, 1 μM (human Nav1.2): ~50% | Patch-clamp percentage block, 10 μM (human Nav1.2): 94.4 ± 1.3 (4) %

CCCCCCC[C@@H](C/C=C/CCC(=O)NCCc1c[nH]c2ccccc12)OC [(S)-hermitamide B, 2-(1H-indol-3-yl)-ethyl (7S,4E)-Methoxytetradecenamide]
% [3H]-BTX Displacement At 10 μM [1]: 29.02 ± 0.29 (2) % | Patch-clamp percentage block, 1 μM (human Nav1.2): 80% | Patch-clamp percentage block, 1 μM (human Nav1.2; listed as Hermitamide B): ~80% | Patch-clamp percentage block, 10 μM (human Nav1.2): 100 (3) %

CCCCCCC[C@@H](C/C=C/CCC(=O)O)OC [(S)-lyngbic acid, (7S,4E)-Methoxytetradecenoic Acid]
% [3H]-BTX Displacement At 10 μM [1]: 7.77 ± 2.20 (2) % | Patch-clamp percentage block, 10 μM (human Nav1.2): 44.4 ± 0.3 (4) %

C#CC(O)(CCCCCCC)c1cccc(Cl)c1 (stereo not drawn) [Compound 12]
[3H]-BTX-B Binding Data, Displacement % (site 2 of the VGSC): 78%

C#C/C(=C\CCCCCC)c1cccc(Cl)c1 [Compound 13]
[3H]-BTX-B Binding Data, Displacement % (site 2 of the VGSC): 32%

C=CCCCCCC1(c2cccc(Cl)c2)NC(=O)NC1=O (stereo not drawn) [Compound 16]
[3H]-BTX-B Binding Data, Displacement % (site 2 of the VGSC): 79%

C=CCCCCCC1(c2cccc(Cl)c2)NC(=O)N(Cc2ccccc2)C1=O (stereo not drawn) [Compound 17]
[3H]-BTX-B Binding Data, Displacement % (site 2 of the VGSC): 23%

O=C1NC(=O)C(CCCCCC2CO2)(c2cccc(Cl)c2)N1 (stereo not drawn) [Compound 18]
[3H]-BTX-B Binding Data, Displacement % (site 2 of the VGSC): 28%

O=C1NC(=O)C(CCCCCC2CC2)(c2cccc(Cl)c2)N1 (stereo not drawn) [Compound 20]
[3H]-BTX-B Binding Data, Displacement % (site 2 of the VGSC): 8%
